Columns and labels:
Assay in all cases: radiometric filter-binding kinase assay
AURKB (human) = AURKB (human) (UniProt Q96GD4)
CDK9 CCNT1 (human) = CDK9 CCNT1 (human) (UniProt P50750+O60563)
CSNK1G2 (human) = CSNK1G2 (human) (UniProt P78368)
DDR2 (human) = DDR2 (human) (UniProt Q16832)
EIF2AK3 (human) = EIF2AK3 (human) (UniProt Q9NZJ5)
IRAK1 (human) = IRAK1 (human) (UniProt P51617)
[1] = system: OXSR1 (human), O95747 [T185E]
PHKG1 (human) = PHKG1 (human) (UniProt Q16816)
PRKCG (human) = PRKCG (human) (UniProt P05129)
PTK6 (human) = PTK6 (human) (UniProt Q13882)
STK16 (human) = STK16 (human) (UniProt O75716)
Chain of STK16 (human) (O75716 whole entry, looked up): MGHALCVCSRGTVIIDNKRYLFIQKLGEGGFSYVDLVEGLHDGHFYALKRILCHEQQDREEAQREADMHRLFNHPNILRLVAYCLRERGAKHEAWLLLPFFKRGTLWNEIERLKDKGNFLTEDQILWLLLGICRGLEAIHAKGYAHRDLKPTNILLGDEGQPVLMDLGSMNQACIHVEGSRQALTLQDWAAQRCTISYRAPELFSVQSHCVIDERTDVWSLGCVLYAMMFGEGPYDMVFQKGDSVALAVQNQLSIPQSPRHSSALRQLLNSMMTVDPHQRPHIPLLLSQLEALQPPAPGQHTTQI

STK24 (human) = STK24 (human) (UniProt Q9Y6E0)
STK33 (human) = STK33 (human) (UniProt Q9BYT3)
Chain of STK33 (human) (Q9BYT3 whole entry, looked up): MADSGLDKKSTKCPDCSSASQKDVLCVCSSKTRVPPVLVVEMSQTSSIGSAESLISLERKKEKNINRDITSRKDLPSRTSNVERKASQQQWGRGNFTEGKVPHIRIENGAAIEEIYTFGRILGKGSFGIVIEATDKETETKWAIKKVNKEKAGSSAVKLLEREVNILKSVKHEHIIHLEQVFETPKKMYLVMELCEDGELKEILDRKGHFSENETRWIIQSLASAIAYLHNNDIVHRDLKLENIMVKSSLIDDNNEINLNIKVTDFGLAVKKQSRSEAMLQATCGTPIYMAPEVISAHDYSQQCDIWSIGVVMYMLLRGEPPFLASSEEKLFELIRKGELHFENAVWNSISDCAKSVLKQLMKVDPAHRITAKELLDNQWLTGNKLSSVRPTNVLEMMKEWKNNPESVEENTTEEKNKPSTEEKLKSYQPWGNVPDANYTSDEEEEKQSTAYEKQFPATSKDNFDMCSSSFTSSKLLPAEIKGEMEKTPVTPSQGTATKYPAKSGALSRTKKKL

TEK (human) = TEK (human) (UniProt Q02763)
Chain of TEK (human) (Q02763 whole entry, looked up): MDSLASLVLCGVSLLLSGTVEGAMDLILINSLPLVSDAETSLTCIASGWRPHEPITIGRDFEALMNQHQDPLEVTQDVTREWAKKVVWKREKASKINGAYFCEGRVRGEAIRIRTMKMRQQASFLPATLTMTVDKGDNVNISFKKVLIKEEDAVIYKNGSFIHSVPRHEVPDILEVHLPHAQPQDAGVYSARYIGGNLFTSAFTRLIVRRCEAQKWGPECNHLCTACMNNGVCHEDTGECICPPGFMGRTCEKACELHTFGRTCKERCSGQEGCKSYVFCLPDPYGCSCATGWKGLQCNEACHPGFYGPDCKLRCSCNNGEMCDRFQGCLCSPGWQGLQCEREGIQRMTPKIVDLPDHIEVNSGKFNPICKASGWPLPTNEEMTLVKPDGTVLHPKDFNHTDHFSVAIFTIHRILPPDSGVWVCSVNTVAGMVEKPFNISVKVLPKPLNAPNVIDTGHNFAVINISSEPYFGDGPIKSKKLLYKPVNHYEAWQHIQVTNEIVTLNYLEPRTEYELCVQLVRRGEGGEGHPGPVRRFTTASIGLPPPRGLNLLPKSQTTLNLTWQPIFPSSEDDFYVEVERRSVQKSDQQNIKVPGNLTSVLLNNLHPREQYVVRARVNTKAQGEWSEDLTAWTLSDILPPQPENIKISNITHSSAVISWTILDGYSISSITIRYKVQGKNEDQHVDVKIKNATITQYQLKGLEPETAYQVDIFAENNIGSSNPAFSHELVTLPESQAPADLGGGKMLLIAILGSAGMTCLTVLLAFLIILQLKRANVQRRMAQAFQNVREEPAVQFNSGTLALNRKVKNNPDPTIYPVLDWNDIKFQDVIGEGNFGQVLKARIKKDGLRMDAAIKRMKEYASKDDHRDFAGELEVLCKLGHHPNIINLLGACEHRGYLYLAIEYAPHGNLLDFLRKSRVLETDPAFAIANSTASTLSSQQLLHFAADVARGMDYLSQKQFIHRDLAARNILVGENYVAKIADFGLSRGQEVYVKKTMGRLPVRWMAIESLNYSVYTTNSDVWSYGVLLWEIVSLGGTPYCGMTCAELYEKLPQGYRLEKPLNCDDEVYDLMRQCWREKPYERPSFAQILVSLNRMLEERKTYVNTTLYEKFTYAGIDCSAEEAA

TESK1 (human) = TESK1 (human) (UniProt Q15569)
TLK1 (human) = TLK1 (human) (UniProt Q9UKI8)
TSSK1B (human) = TSSK1B (human) (UniProt Q9BXA7)
Chain of TSSK1B (human) (Q9BXA7 whole entry, looked up): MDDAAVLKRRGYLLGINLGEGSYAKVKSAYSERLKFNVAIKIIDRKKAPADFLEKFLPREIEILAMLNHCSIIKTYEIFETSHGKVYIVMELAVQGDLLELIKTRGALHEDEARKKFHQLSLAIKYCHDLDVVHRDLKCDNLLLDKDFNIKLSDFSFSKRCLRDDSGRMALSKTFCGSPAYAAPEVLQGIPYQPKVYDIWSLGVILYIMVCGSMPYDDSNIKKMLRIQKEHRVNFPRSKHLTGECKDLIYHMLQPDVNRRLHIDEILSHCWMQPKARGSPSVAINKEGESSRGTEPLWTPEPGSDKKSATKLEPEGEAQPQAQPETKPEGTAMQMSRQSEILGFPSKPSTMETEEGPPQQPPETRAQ

TTBK1 (human) = TTBK1 (human) (UniProt Q5TCY1)
WNK1 (human) = WNK1 (human) (UniProt Q9H4A3)
ZAP70 (human) = ZAP70 (human) (UniProt P43403)
Chain of ZAP70 (human) (P43403 whole entry, looked up): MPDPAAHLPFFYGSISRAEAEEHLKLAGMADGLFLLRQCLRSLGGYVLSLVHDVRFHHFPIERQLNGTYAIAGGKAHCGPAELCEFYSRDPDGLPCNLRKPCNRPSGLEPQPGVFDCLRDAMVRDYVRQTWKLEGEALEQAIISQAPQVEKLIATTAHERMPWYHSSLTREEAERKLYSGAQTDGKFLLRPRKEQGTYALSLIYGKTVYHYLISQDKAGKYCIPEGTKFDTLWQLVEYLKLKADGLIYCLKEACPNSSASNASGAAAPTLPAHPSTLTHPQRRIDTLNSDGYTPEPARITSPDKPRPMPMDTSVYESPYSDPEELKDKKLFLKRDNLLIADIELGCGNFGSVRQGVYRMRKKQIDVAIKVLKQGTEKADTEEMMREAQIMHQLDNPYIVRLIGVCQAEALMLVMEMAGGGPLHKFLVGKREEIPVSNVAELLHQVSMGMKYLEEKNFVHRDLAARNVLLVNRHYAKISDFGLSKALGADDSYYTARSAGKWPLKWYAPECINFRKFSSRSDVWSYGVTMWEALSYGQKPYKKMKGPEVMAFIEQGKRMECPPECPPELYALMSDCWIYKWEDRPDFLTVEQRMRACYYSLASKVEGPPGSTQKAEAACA

Chain of DDR2 (human) (Q16832 whole entry, looked up): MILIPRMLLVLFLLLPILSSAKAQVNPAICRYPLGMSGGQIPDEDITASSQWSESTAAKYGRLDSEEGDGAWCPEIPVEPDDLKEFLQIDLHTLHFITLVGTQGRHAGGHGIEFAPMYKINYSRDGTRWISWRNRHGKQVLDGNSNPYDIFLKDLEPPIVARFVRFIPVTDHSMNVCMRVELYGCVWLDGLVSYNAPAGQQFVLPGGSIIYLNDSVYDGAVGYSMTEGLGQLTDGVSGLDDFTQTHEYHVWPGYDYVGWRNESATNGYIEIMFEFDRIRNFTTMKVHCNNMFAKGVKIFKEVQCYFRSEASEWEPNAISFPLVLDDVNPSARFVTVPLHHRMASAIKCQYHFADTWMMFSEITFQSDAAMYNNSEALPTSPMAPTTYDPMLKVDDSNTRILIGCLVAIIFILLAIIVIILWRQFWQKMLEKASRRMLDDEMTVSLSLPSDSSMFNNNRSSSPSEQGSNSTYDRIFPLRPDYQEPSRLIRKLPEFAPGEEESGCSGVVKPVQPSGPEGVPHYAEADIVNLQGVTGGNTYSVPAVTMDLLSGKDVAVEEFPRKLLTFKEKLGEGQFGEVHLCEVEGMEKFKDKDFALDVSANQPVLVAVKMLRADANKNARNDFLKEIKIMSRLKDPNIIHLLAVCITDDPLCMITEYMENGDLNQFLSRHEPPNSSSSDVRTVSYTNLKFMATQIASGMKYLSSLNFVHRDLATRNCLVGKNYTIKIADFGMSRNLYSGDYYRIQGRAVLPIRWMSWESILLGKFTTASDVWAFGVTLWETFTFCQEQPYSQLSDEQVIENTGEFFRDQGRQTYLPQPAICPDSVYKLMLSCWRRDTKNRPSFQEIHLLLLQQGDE
Chain of EIF2AK3 (human) (Q9NZJ5 whole entry, looked up): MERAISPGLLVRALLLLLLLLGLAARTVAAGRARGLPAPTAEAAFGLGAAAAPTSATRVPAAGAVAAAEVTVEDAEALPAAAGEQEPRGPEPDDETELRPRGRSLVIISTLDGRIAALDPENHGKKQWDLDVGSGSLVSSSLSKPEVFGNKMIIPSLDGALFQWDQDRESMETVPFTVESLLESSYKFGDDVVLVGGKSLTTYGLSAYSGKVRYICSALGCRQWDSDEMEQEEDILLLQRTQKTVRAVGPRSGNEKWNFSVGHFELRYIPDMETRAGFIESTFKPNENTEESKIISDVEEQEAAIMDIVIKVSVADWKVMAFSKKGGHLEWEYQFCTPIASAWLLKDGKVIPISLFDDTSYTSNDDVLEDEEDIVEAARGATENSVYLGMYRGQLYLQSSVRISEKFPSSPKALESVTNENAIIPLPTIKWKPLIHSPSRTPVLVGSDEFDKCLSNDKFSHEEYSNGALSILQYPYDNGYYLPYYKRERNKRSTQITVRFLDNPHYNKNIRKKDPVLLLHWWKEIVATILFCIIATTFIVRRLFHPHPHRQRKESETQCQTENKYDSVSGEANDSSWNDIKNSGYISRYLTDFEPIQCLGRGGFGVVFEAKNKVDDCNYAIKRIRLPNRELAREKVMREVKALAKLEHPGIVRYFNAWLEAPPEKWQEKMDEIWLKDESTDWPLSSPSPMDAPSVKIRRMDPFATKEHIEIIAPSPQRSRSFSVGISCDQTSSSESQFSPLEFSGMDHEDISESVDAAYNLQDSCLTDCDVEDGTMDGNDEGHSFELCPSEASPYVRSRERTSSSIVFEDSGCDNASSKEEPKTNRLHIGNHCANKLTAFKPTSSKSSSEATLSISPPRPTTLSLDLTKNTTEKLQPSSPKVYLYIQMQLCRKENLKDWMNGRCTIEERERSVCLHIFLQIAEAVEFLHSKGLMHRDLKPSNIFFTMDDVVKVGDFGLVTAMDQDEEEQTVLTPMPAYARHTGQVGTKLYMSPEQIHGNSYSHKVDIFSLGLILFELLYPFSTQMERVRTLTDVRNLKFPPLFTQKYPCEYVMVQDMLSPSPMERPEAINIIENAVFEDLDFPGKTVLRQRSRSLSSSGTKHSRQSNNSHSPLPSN

COc1ccc(N(C(=O)Nc2c(C)cccc2C)c2cc(Nc3ccc(N4CCN(C)CC4)cc3)ncn2)c(OC)c1
residual activity (AURKB (human); compound 0.01 µM): 93% | residual activity (AURKB (human); compound 0.1 µM): 92% | residual activity (AURKB (human); compound 1.0 µM): 91% | residual activity (CDK9 CCNT1 (human); compound 0.01 µM): 104% | residual activity (CDK9 CCNT1 (human); compound 0.1 µM): 87% | residual activity (CDK9 CCNT1 (human); compound 1.0 µM): 95% | residual activity (CSNK1G2 (human); compound 0.01 µM): 96% | residual activity (CSNK1G2 (human); compound 0.1 µM): 93% | residual activity (DDR2 (human); compound 0.01 µM): 17% | residual activity (DDR2 (human); compound 0.1 µM): 8% | residual activity (DDR2 (human); compound 1.0 µM): 6% | residual activity (EIF2AK3 (human); compound 0.01 µM): 91% | residual activity (EIF2AK3 (human); compound 0.1 µM): 97% | residual activity (EIF2AK3 (human); compound 1.0 µM): 95% | residual activity (IRAK1 (human); compound 0.01 µM): 98% | residual activity (IRAK1 (human); compound 0.1 µM): 95% | residual activity (IRAK1 (human); compound 1.0 µM): 95% | residual activity ([1]; compound 0.01 µM): 101% | residual activity ([1]; compound 0.1 µM): 93% | residual activity ([1]; compound 1.0 µM): 57% | residual activity (PHKG1 (human); compound 0.01 µM): 125% | residual activity (PHKG1 (human); compound 0.1 µM): 104% | residual activity (PHKG1 (human); compound 1.0 µM): 107% | residual activity (PRKCG (human); compound 0.01 µM): 101% | residual activity (PRKCG (human); compound 0.1 µM): 104% | residual activity (PRKCG (human); compound 1.0 µM): 96% | residual activity (PTK6 (human); compound 0.01 µM): 97% | residual activity (PTK6 (human); compound 0.1 µM): 24% | residual activity (PTK6 (human); compound 1.0 µM): 3% | residual activity (STK16 (human); compound 0.01 µM): 106% | residual activity (STK16 (human); compound 0.1 µM): 106% | residual activity (STK16 (human); compound 1.0 µM): 106% | residual activity (STK24 (human); compound 0.01 µM): 105% | residual activity (STK24 (human); compound 1.0 µM): 40% | residual activity (STK33 (human); compound 0.01 µM): 113% | residual activity (STK33 (human); compound 0.1 µM): 106% | residual activity (STK33 (human); compound 1.0 µM): 107% | residual activity (TEK (human); compound 0.01 µM): 116% | residual activity (TEK (human); compound 0.1 µM): 82% | residual activity (TEK (human); compound 1.0 µM): 42% | residual activity (TESK1 (human); compound 0.01 µM): 82% | residual activity (TESK1 (human); compound 0.1 µM): 29% | residual activity (TESK1 (human); compound 1.0 µM): 16% | residual activity (TLK1 (human); compound 0.01 µM): 98% | residual activity (TLK1 (human); compound 0.1 µM): 93% | residual activity (TLK1 (human); compound 1.0 µM): 93% | residual activity (TSSK1B (human); compound 0.01 µM): 108% | residual activity (TSSK1B (human); compound 0.1 µM): 102% | residual activity (TSSK1B (human); compound 1.0 µM): 62% | residual activity (TTBK1 (human); compound 0.01 µM): 100% | residual activity (TTBK1 (human); compound 0.1 µM): 117% | residual activity (TTBK1 (human); compound 1.0 µM): 112% | residual activity (WNK1 (human); compound 0.01 µM): 100% | residual activity (WNK1 (human); compound 0.1 µM): 107% | residual activity (WNK1 (human); compound 1.0 µM): 102% | residual activity (ZAP70 (human); compound 0.01 µM): 96% | residual activity (ZAP70 (human); compound 0.1 µM): 98% | residual activity (ZAP70 (human); compound 1.0 µM): 94%

— the kinase profiling compilation of Christmann-Franck et al. (2016)
